Data on 13 molecules can be found in patent publication US10548898B2, “Quinazoline compounds” (Gilead Sciences, Inc., priority 2014, dated 2020).

Format in all cases: cell-based
In experiment [1] the test system is HIV-1 reverse transcriptase mutant K103N. Description: High throughput cytopathic effect assay in MT-4 cells, K103N mutant. The settings on record: for EC50: Human immunodeficiency virus 1, MT4, 120 h, read-out: MT4 EC50 (nM) against K103N; for FC against mutant K103N: fold change of MT4 EC50 versus w.t. assay 2. The text has this: (§1) Compounds were screened in a miniaturized, high throughput cytopathic effect assay for activity against HIV-1 HBX2 (wild type) and HIV-1 reverse transcriptase mutants K103N and Y181C. In Tables 1 and 2 below. “w.t.” refers to results of the tested compounds run with the wildtype 1 and “w.t, assay 2” refers results of the tested compounds run with the wildtype on the same day as the testing of the compounds with the mutants. Thus, “w.t, assay 2” was run under the same conditions as the testing of the compounds with the mutants and provides a direct comparison with the results from the testing with the mutants.
(§2) Ten-point serial dilutions of compounds with half-log step size were generated in DMSO. AZT ([…]) was used as the positive control and DMSO as the negative control. The Echo acoustic dispenser was used to deliver 200 nL of serially diluted compound into sterile 384 well tissue culture assay plates. Two million MT-4 cells were incubated with each of the 3 viruses at MOI of 0.0005 in separate 1 mL infection tubes for 1 hour at 37° C. The cells were diluted in cell culture medium (RPMI+10% FBS) to 50.000 cells/mL. The infected cells were added to 384 well assay plates containing serially dilute compounds. Assay plates were incubated for 5 days in a humidified incubator set at 37° C. and 5% CO2. To measure the cytopathic effect of HIV, 40 μL Cell TiterGlo was added to each well and the resulting luminescence signal is read with the Envision plate reader (Perkin Elmer). Data were normalized to positive and negative controls in each plate and expressed as % CPE Protection. EC50 values were defined as the compound concentration that caused a 50% decrease in luminescence signal, and were calculated by non-linear regression using Pipeline Pilot software by applying a four parameter fit equation (Accelrys, San Diego, Calif.).
(In general: Cytopathic effects are the visible damage that an infection or toxin causes in cultured cells.)

The next experiment has as its system HIV-1 HBX2 (wild type). Description: High throughput cytopathic effect assay in MT-4 cells, wild type HIV-1.
Text: as §1, §2

For experiment [2], the system named is HIV-1 reverse transcriptase mutant Y181C. Nature of the experiment: High throughput cytopathic effect assay in MT-4 cells, Y181C mutant. As to conditions: for EC50: Human immunodeficiency virus 1, MT4, 120 h, read-out: MT4 EC50 (nM) against Y181C; for FC against mutant Y181C: fold change of MT4 EC50 versus w.t. assay 2.
Text: as §1, §2

The mark [3] stands for this setting: Human immunodeficiency virus 1, MT4, 120 h, MT-4 cells, 5 days, cytopathic effect, Cell TiterGlo, read-out: MT4 EC50 (nM) against w.t.
[4] abbreviates: Human immunodeficiency virus 1, MT4, read-out: MT4 EC50 (nM) against w.t. assay 2.

Read-outs that look alike come from different tables or passages of the source.

Broadly, the EC50 is the concentration that produces a half-maximal response.

As for `Cc1cc(/C=C/C#N)cc(C)c1-c1cc(F)cc2c(N)nc(Nc3ccc(C#N)nn3)nc12` [Compound 27, (E)-6-((4-Amino-8-(4-(2-cyanovinyl)-2,6-dimethylphenyl)-6-fluoroquinazolin-2-yl)amino)pyridazine-3-carbonitrile], the EC50 was 5.3 nM in experiment [1], 6.3 nM in the experiment with HIV-1 HBX2 (wild type) (setting [3]), 3.8 nM in the experiment on HIV-1 HBX2 (wild type) (setting [4]) and 400 nM in experiment [2]. The “FC against mutant K103N” value in experiment [1] worked out at 1.4. Also, the “FC against mutant Y181C” value in experiment [2] was 105.9.

With `COc1ccc(-c2c(C)cc(/C=C/C#N)cc2C)c2nc(Nc3ccc(C#N)cc3)nc(N)c12` [Compound 28, (E)-4-((4-Amino-8-(4-(2-cyanovinyl)-2,6-dimethylphenyl)-5-methoxyquinazolin-2-yl)amino)benzonitrile], the EC50 in experiment [1] worked out at 14.3 nM; in the experiment with HIV-1 HBX2 (wild type) (setting [3]), 11.4 nM; with HIV-1 HBX2 (wild type) (setting [4]) it was 9.1 nM; in experiment [2] it was 57.2 nM. In experiment [1], the “FC against mutant K103N” value is listed as 1.6. The “FC against mutant Y181C” value in experiment [2] stood at 6.3.

Take `COc1ccc(-c2c(C)cc(/C=C/C#N)cc2C)c2nc(Nc3ccc(C#N)cn3)nc(N)c12` [Compound 29, (E)-6-((4-Amino-8-(4-(2-cyanovinyl)-2,6-dimethylphenyl)-5-methoxyquinazolin-2-yl)amino)nicotinonitrile]: the EC50 in experiment [1] was 33.4 nM; with HIV-1 HBX2 (wild type) (setting [3]), 22.1 nM; in the experiment with HIV-1 HBX2 (wild type) (setting [4]), 18.6 nM; in experiment [2], over 500 nM. For the same molecule, the “FC against mutant K103N” value in experiment [1] is 1.8. The “FC against mutant Y181C” value in experiment [2] is reported as over 26.9.

Consider `CNc1nc(Nc2ccc(C#N)cc2)nc2c(-c3c(C)cc(/C=C/C#N)cc3C)cccc12` [Compound 30, (E)-4-((8-(4-(2-Cyanovinyl)-2,6-dimethylphenyl)-4-(methylamino)quinazolin-2-yl)amino)benzonitrile], for which the EC50 in experiment [1] came to 17 nM; in the experiment with HIV-1 HBX2 (wild type) (setting [3]), 15.9 nM; with HIV-1 HBX2 (wild type) (setting [4]), 13 nM; in experiment [2], 55.6 nM. Besides, the “FC against mutant K103N” value in experiment [1] is 1.3. For the same molecule, the “FC against mutant Y181C” value in experiment [2] amounted to 4.3.

For the molecule `CNc1nc(Nc2ccc(C#N)cn2)nc2c(-c3c(C)cc(/C=C/C#N)cc3C)cccc12` [Compound 31, (E)-6-((8-(4-(2-Cyanovinyl)-2,6-dimethylphenyl)-4-(methylamino)quinazolin-2-yl)amino)nicotinonitrile], the EC50 in experiment [1] was determined as 17.6 nM; in the experiment on HIV-1 HBX2 (wild type) (setting [3]), 10.5 nM; in the experiment on HIV-1 HBX2 (wild type) (setting [4]) it was 8.6 nM; in experiment [2], 432 nM. In experiment [1], the “FC against mutant K103N” value is recorded as 2.1. Also, the “FC against mutant Y181C” value in experiment [2] was 50.5.

As to `COc1cc(/C=C/C#N)cc(OC)c1-c1cccc2c(N)nc(Nc3ccc(C#N)cc3)nc12` [Compound 32, (E)-4-((4-Amino-8-(4-(2-cyanovinyl)-2,6-dimethoxyphenyl)quinazolin-2-yl)amino)benzonitrile], the EC50 in experiment [1] turned out to be 11.5 nM; with HIV-1 HBX2 (wild type) (setting [3]), 1.9 nM; with HIV-1 HBX2 (wild type) (setting [4]) it was 1.3 nM; in experiment [2] it was 10.5 nM. Also, the “FC against mutant K103N” value in experiment [1] was 1.2. Besides, the “FC against mutant Y181C” value in experiment [2] is given as 8.3.

Take `COc1cc(/C=C/C#N)cc(OC)c1-c1cccc2cnc(Nc3ccc(C#N)cc3)nc12` [Compound 33, (E)-44-((8-(4-(2-Cyanovinyl)-2,6-dimethoxyphenyl)quinazolin-2-yl)amino)benzonitrile]: the EC50 in experiment [1] turned out to be 3.2 nM; in the experiment with HIV-1 HBX2 (wild type) (setting [3]) it was 2.1 nM; with HIV-1 HBX2 (wild type) (setting [4]) it was 1.5 nM; in experiment [2], 12.3 nM. Further, the “FC against mutant K103N” value in experiment [1] came out at 2.1. Further, the “FC against mutant Y181C” value in experiment [2] is 7.9.

With `CCc1cc(/C=C/C#N)cc(CC)c1-c1cccc2c(N)nc(Nc3ccc(C#N)cc3)nc12` [Compound 35, (E)-4-((4-Amino-8-(4-(2-cyanovinyl)-2,6-diethylphenyl)quinazolin-2-yl)amino)benzonitrile], the EC50 in experiment [1] came out at 16.9 nM; with HIV-1 HBX2 (wild type) (setting [3]) it was 12.8 nM; in the experiment with HIV-1 HBX2 (wild type) (setting [4]) it was 16.8 nM; in experiment [2] it was 38.6 nM. For the same molecule, the “FC against mutant K103N” value in experiment [1] came to 1.0. Besides, the “FC against mutant Y181C” value in experiment [2] worked out at 2.3.

As for `CCc1cc(/C=C/C#N)cc(CC)c1-c1cccc2c(N)nc(Nc3ccc(C#N)cn3)nc12` [Compound 36, (E)-6-((4-Amino-8-(4-(2-cyanovinyl)-2,6-diethylphenyl)quinazolin-2-yl)amino)nicotinonitrile], the EC50 in experiment [1] is 10.1 nM; in the experiment with HIV-1 HBX2 (wild type) (setting [3]), 7.7 nM; in the experiment on HIV-1 HBX2 (wild type) (setting [4]) it was 10.5 nM; in experiment [2], 87.3 nM. Further, the “FC against mutant K103N” value in experiment [1] turned out to be 1.0. Moreover, the “FC against mutant Y181C” value in experiment [2] was found to be 8.3.

Take `Cc1cc(/C=C/C#N)cc(C)c1-c1cccc2c(NC(N)=O)nc(Nc3ccc(C#N)cc3)nc12` [Compound 37, (E)-1-(2-((4-Cyanophenyl)amino)-8-(4-(2-cyanovinyl)-2,6-dimethylphenyl)quinazolin-4-yl)urea]: the EC50 in experiment [1] worked out at 7.8 nM; in the experiment with HIV-1 HBX2 (wild type) (setting [3]) it was 4.7 nM; with HIV-1 HBX2 (wild type) (setting [4]), 6.8 nM; in experiment [2] it was 22.1 nM. In addition, the “FC against mutant K103N” value in experiment [1] amounted to 1.2. The “FC against mutant Y181C” value in experiment [2] is listed as 3.3.

With `C/C(=C\C#N)c1cc(C)c(-c2cccc3c(N)nc(Nc4ccc(C#N)cc4)nc23)c(C)c1` [Compound 38, (E)-4-((4-Amino-8-(4-(1-cyanoprop-1-en-2-yl)-2,6-dimethylphenyl)quinazolin-2-yl)amino)benzonitrile], the half-maximal effective concentration (EC50) in experiment [1] was 7 nM; in the experiment on HIV-1 HBX2 (wild type) (setting [3]), 6 nM; with HIV-1 HBX2 (wild type) (setting [4]), 7.9 nM; in experiment [2] it was 18.6 nM. Moreover, the “FC against mutant K103N” value in experiment [1] was 0.9. Moreover, the “FC against mutant Y181C” value in experiment [2] turned out to be 2.4.

For `C/C(=C/C#N)c1cc(C)c(-c2cccc3c(N)nc(Nc4ccc(C#N)cc4)nc23)c(C)c1` [Compound 39, (Z)-4-((4-Amino-8-(4-(1-cyanoprop-1-en-2-yl)-2,6-dimethylphenyl)quinazolin-2-yl)amino)benzonitrile], the EC50 is 12.1 nM in experiment [1], 5.9 nM in the experiment on HIV-1 HBX2 (wild type) (setting [3]), 8.9 nM in the experiment on HIV-1 HBX2 (wild type) (setting [4]) and 27.2 nM in experiment [2]. The “FC against mutant K103N” value in experiment [1] was 1.4. Further, the “FC against mutant Y181C” value in experiment [2] amounted to 3.0.

Take `Cc1cc(/C=C/C#N)cc(C)c1-c1cccc2c(=O)[nH]c(Nc3ccc(C#N)cc3)nc12` [Compound 41, (E)-4-((8-(4-(2-Cyanovinyl)-2,6-dimethylphenyl)-4-oxo-3,4-dihydroquinazolin-2-yl)amino)benzonitrile]: the EC50 in experiment [1] was 15.7 nM; with HIV-1 HBX2 (wild type) (setting [3]), 6.3 nM; in the experiment with HIV-1 HBX2 (wild type) (setting [4]), 9.5 nM; in experiment [2], 32.8 nM. In experiment [1], the “FC against mutant K103N” value amounted to 1.6. Moreover, the “FC against mutant Y181C” value in experiment [2] is listed as 3.4.
